# Data as given in article PMC9738927, “A Newly Identified Monoterpenoid-Based Small Molecule Able to Support the Survival of Primary Cultured Dopamine Neurons and Alleviate MPTP-Induced Toxicity In Vivo” (Molecules, 2022).
# Several values for one entry are separate records, joined by “and”; a condition that tells them apart may be missing. Equal entries are not always repeated.
# Experiments:
# [1] = system: naïve primary midbrain dopamine neurons; experiment: Survival of naïve cultured dopamine neurons (TH-positive cell count); type: cell-based, mouse
# Protocol: We developed a compound library containing 20 diol derivatives and screened them on cultured primary DA neurons (Supplementary Materials, Table S1). Compounds were taken at a dose of 0.1 and 1 μM (based on effective doses for the epoxydiol). Based on the screening results, we selected four compounds and tested them in a naïve and MPP^+-treated (1-methyl-4-phenylpyridinium (MPP^+), the neurotoxic metabolite of MPTP) DA culture at 1, 10, and 100 nM to select the compound with the lowest effective dose.
# The survival of cultured mouse DA neurons was assessed as described before. Briefly, naïve or MPP^+ (dopaminergic selective neurotoxin)-challenged embryonic midbrain neurons were cultured in the presence or absence of a diol-like compound. The number of survived DA neurons was estimated after immunocytochemical staining with antibodies recognizing the key enzyme of dopamine synthesis—tyrosine hydroxylase.
# [2] = Maximum tolerated dose and LD50 (acute oral toxicity); type: in vivo; conditions: female, CD-1, mouse, in vivo, po
# Protocol: (§1) Healthy animals were randomly divided into groups of four males or four females each. After a 3–4 h starvation, animals were administered 100, 150, 200, or 500 mg/kg PA96 solution (prepared by dissolution in saline containing 0.5% Tween 80) or the vehicle […]. Food was provided for approximately 1–2 h after administration. All mice were continuously monitored for changes in weight, breathing, ptosis, gait disturbance, tremor, and mortality 1 h after administration of PA96 and every 6 h after that. The day of dosing was designated as day 0, and animals were observed until day 14. Each mouse was weighed on days 0, 1, 3, 7, and 14.
# (§2) The arithmetic method of Kerber was used to determine the lethal dose fifty (LD50) that killed 50% of studied animals with PA96.
# (§3) The LD50 value was determined according to the following equation [24]:LD50 = LD100 − ∑ (z × d)/m(1) where LD50—dose capable of killing 50% of animals; LD100—dose capable of killing 100% of animals; z—half the sum of the number of animals in the experiments with the test of two following doses; d—the difference between two successive doses of administrative PA96; m—total number of animals in each group.
# [3] = system: CD-1 female mice; experiment: as above; type: in vivo
# Protocol: as §1, §2, §3
# [4] = Pharmacokinetics in brain tissue after a single oral dose (HPLC-MS/MS); type: in vivo, CD1 IGS mice; conditions: single oral 10 mg/kg
# Protocol: CD1 IGS mice received a single oral dose of PA96 in Tween 80 (10 mg/kg). Mice were sacrificed 5, 10, 30, 60, and 120 min after injection, and all brain samples were collected and placed into an Eppendorf microtube (2 mL). Samples were frozen with liquid nitrogen for subsequent preparation and HPLC-MS/MS analysis. A set of calibrators were prepared, followed by their preparation protocol, and analyzed. The calibration curve was built in the interval of 1–100 ng/g and used to calculate the PA96 concentration in the brain tissue samples.
# A stock solution was prepared by dissolving approximately 10 mg of PA96 in a required amount of pure methanol to have the solution with a concentration of 1.0 mg/mL. The working solutions of PA96 with concentrations of 5, 7.5, 25, 50, 75, 250, and 300 ng/mL were prepared by diluting the stock solution with methanol. To prepare a calibrator, a free PA96 brain tissue (~50 mg) was weighed and transferred into an Eppendorf microtube (V = 1.5 mL), then the working solution of PA-96 was added. The mixture was homogenized (Minilys, Bertin Technologies, Montigny-leBretonneux, France) for 60 s at low speed. The calibrators were prepared on the day of the experiment. The working solution of IS in acetonitrile with a concentration of 1.0 mg/mL was used. All the solutions were stored at −18 °C. Before sample preparation, the solutions were brought to room temperature.
# The exact amount (~50 mg) of the mouse brain tissue sample was transferred into a polypropylene tube (1.5 mL). For each portion, the solution of IS (1 µL per 1 mg of the brain sample) and pure acetonitrile (10 µL per 1 mg of the brain sample) were added, then all samples were homogenized for 4 min at medium speed. After the homogenization procedure, ~100 mg of the salt mixture (magnesium sulfate: sodium chloride: trisodium citrate: disodium citrate as 4:1:1:0.5) for extraction was added, followed by shaking for 30 min at 1400 rpm in an orbital shaker. The supernatant was separated from the homogenate by centrifugation for 10 min at 13,400 rpm. The obtained solution was further shaken with ~80 mg of the SPE mixture (magnesium sulfate:C18EC as 6:1 and acetonitrile) for 10 min at 1400 rpm and centrifuged for 10 min at 13,400 rpm. A total of 300 µL of the organic phase was placed into a fresh tube and evaporated to dryness in a vacuum. The residue containing the analyte and IS was dissolved in 150 μL of methanol, shaken for 10 min, transferred into a chromatographic vial, and analyzed by HPLC-MS/MS.
# The LC-MS/MS analysis was performed using an LC-20AD Prominence chromatograph equipped with an autosampler thermostated at +10 °C (Shimadzu, Japan) and a 3200 QTRAP mass spectrometer equipped with an ESI source (AB SCIEX, USA). Separation was achieved on a ProntoSil-120-5-C18 AQ column (2.0 × 75 mm, 5 μm particles, (EcoNova, Novosibirsk, Russia)) thermostated at +35 °C. The mobile phase was composed of water containing 0.1% formic acid (eluent A) and methanol containing 0.1% formic acid (eluent B). The gradient elution program was as follows: 0 min-10% (B); 0.5 min-10% (B); 7 min-98% (B); 9 min-98% (B); the flow rate was 200 μL/min.
# The mass spectrometer was operated using multiple reaction monitoring (MRM) in positive ion mode. Ionization was conducted by applying a voltage of 5500 V, and the source temperature was set at +350 °C. For the analyte and IS, the optimized source parameters, viz. CUR (curtain gas), GS1 (Gas 1), and GS2 (Gas 2) were set at 20 psi. The CAD (collisionally activated dissociation) gas was nitrogen, and the parameter was set as high. The parameters of PA96, viz. MRM transitions, declustering potentials (DP), collision energies (CE), and collision cell exit potentials (CXP) are presented in Table 3. The dwell time was 100 msec. Analyst 1.6.2 software (AB SCIEX, USA) was used for instrument control and data acquisition, and MultiQuant 2.1 software (AB SCIEX, USA) was used for quantification. […]
compound,measurement,setting,value
"C=C(C)[C@@H]1CC=C(C)[C@@H](Sc2nc[nH]n2)[C@@H]1O [PA96, (1R,2R,6S)-2-(1H-1,2,4-triazol-3-ylthio)-3-methyl-6-(prop-1-en-2-yl)cyclohex-3-enol]",potency relative to epoxydiol in the survival assay,[1]; PA96 vs epoxydiol,up to 100 times
same,effective concentration in survival assay for DA neurons,[1]; cultured DA neurons,1 nM and 1−10 nM
same,cytotoxicity in in vitro experiments,[1]; naive neurons and with MPP+,neither cytotoxic effect in naive neurons nor increased cytotoxicity
same,number of TH-positive neurons greater than in vehicle-treated wells,"[1]; naïve neurons, 1 nM, p = 0.04",40%
same,LD50 at 14 days,[2],234 mg/kg
same,MTD at 14 days,[2],100 mg/kg
same,MTD relative to the effective dose,"[3]; female, CD-1, mouse, in vivo, 14 days",100 fold
same,"dose at which abnormal clinical signs were observed (piloerection, decreased motor activity, ptosis, gait disturbance)","[3]; female, CD-1, mouse, in vivo, po, 14 days",≥ 150 mg/kg
same,hazard category,"[3]; mouse, in vivo",Category III (slightly hazardous)
same,therapeutic dose lower than LD50,[3]; therapeutic dose vs LD50,at least 100 times
same,Kp,"[4]; CD1 IGS, mouse, brain and whole blood, read-out: Kb,brain (brain-to-blood coefficient, AUCbrain/AUCblood)",0.119 ± 0.01
same,Cmax,"[4]; CD1 IGS, mouse, brain",125 ng/g
same,Tmax,"[4]; CD1 IGS, mouse, brain",5 min
same,half-life,"[4]; CD1 IGS, mouse, brain",18.8 ± 0.3 min
same,MRT inf,"[4]; CD1 IGS, mouse, brain, read-out: MRT0-inf_obs (converted)",21.5 min
same,concentration in blood higher than in brain tissue,[4]; at 5 min,approximately 4.5 times
same,AUC0-inf_obs,[4]; brain,(2.03 ± 0.09) × 10^3 ng/g∗min
same,AUC0-t,[4]; brain,(1.99 ± 0.09) × 10^3 ng/g∗min
same,time at which the concentration in brain was close to the minimum value,[4],2 h
